Literature values, collected in patent US7193081B2, “Process for preparation of cyclic prodrugs of PMEA and PMPA” (Metabasis Therapeutics, Inc., priority 2002, dated 2007).

Experiments:
hepatitis B = details: against hepatitis B
HIV = details: against HIV

SMILES | antiviral activity (hepatitis B) | antiviral activity (HIV)
Nc1ncnc2c1ncn2CCOCP(=O)(O)O [PMEA, 9-(2-phosphonylmethoxyethyl)adenine] | exhibit antiviral activity | exhibit antiviral activity
C[C@H](Cn1cnc2c(N)ncnc21)OCP(=O)(O)O [PMPA, (R)-9-(2-phosphonyl-methoxypropyl)adenine] | exhibit antiviral activity | exhibit antiviral activity
